Experiment: gradient 5% acetonitrile 3 min, to 50% in 2 min, to 85% in 15 min, held 3 min, 100 µL/min
Settings: column: Zorbax Extend-C18 2.1 x 50 mm; eluents: water / acetonitrile, 0.1% formic acid
Outline: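 Pure standards were analyzed in mixtures of ~100 molecules using HPLC coupled to a quadrupole time-of-flight mass spectrometer, in both positive and negative ionization mode. Separation used a Zorbax Extend-C18 column (2.1 × 50 mm, 1.8 μm) at 100 μL/min, with water and acetonitrile each containing 0.1% formic acid. Dead and dwell volumes were 40 μL and 900 μL, and data were collected over 3 months. Retention time was read from computationally picked adduct peaks, each inspected manually.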

RP-LC retention time	SMILES
620 s	CNC(=O)c1cc(N2CCCC2)nc2c(Cl)cccc12
758 s	CCc1cccc(NC(=O)C2CCCN(c3ncnc4c3nc3n4CCCCC3)C2)c1 (stereo not given)
798 s	Cc1cc(Cl)ccc1NC(=O)c1cccn1-c1cccnc1
740 s	COCC(=O)NC1CCC12CCN(S(=O)(=O)c1c(C)noc1C)CC2 (stereo not given)
725 s	COCCN1C(=O)Cc2ccccc2C1C(=O)N1CCCCC1 (stereo not given)
685 s	Cn1ccc2cc(S(=O)(=O)N3CCCC(C(=O)NCCCN4CCc5ccccc5C4)C3)ccc21 (stereo not given)
1180 s	COc1ccc(CNC(=O)Nc2ccc(-c3nc(-c4ccc(C)cc4C)co3)cc2)cc1
702 s	Cc1ccc(CNC(=O)C2CCN(S(=O)(=O)c3cc(-c4noc(C)n4)cs3)CC2)cc1
631 s	O=C(NCc1ccc(F)cc1)c1cn2c(n1)COCC2
1020 s	Cc1ccc(-n2ccnc2SCc2nc(-c3cccc(C)c3)no2)cc1
746 s	O=C1NC2(CCN(C(=O)Nc3ccc4c(c3)OCO4)CC2)N=C1c1ccccc1
803 s	O=C(c1ccccc1)N1CCC(CCNS(=O)(=O)Cc2ccccc2)CC1
606 s	Cc1cccc2c(C(=O)NC3CC3)c3c(nc12)CCC3
685 s	O=C(NCc1cccnc1Oc1ccccc1)c1ccco1
580 s	Cc1nccn1CCNC(=O)C(=O)Nc1ccc(OC(F)(F)F)cc1
960 s	COC(=O)Cn1nc(-c2nc(-c3cccc(Cl)c3)no2)ccc1=O
596 s	O=C(NC1CC1)[C@@H]1C[C@H](Oc2cccnc2)CN1C(=O)Cn1c(=O)oc2ccccc21
604 s	CCN1CCN(C(=O)Cn2nc(C)c3sc(-c4ccccc4)nc3c2=O)CC1
584 s	CCOC(=O)C1CCC(CNC(=O)Nc2ccc3nc(N4CCN(C)CC4)cc(C)c3c2)CC1 (stereo not given)
752 s	COc1ccccc1OCCNC(=O)CCc1nnc2c3cc(-c4ccc(F)cc4)nn3ccn12
1260 s	CSc1ccc(Cl)c(-c2nc(-c3ccc4oc(C)nc4c3)no2)c1
786 s	OC(c1cc(C(F)(F)F)nc2c(Cl)cc(Cl)cc12)C1CCCCN1 (stereo not given)
887 s	Cc1c(C(=O)NC2CCCC2)cnn1-c1cc(-c2nc(C3CC3)no2)ccn1

RP-LC retention time	SMILES
766 s	O=C(Nc1nnc(C2CC(=O)N(c3ccccc3)C2)o1)c1ccc(Br)cc1 (stereo not given)
944 s	CCCNC(=O)C1=Cc2cc(Br)ccc2OC=C1
869 s	O=C(N1CCC(n2nc(-c3ccsc3)ccc2=O)CC1)C1(c2ccccc2)CC1
633 s	CC1=C(C(=O)NC2CCN(Cc3ccccc3)CC2)C2(CCCCC2)OC1=O
937 s	Cn1c(=O)c2cc(C(=O)Nc3ccc(F)c(F)c3)cnc2n(-c2ccccc2)c1=O
730 s	COCCCNC(=O)C1CCN(S(C)(=O)=O)c2cc(Cl)ccc2O1 (stereo not given)
796 s	Cc1ccccc1-c1noc(N2CCC(C(=O)N3CCOCC3)CC2)n1
683 s	Cc1nn(-c2ccc(F)cc2)c(C)c1S(=O)(=O)N1CCN(c2ccccn2)CC1
776 s	O=C1CCCc2cc(S(=O)(=O)N3CCC(C(=O)NCCc4ccc(Cl)cc4)CC3)ccc2N1
681 s	Cc1cccc(NC(=O)N2CCN(Cc3cn(C)c4ccccc34)CC2)c1
592 s	CC(C)C1c2nccn2CCCN1C(=O)c1cc(C2CC2)[nH]n1 (stereo not given)
908 s	COC(=O)C1=CN(c2cc(OC)cc(OC)c2)c2ccc(F)cc2S1(=O)=O
716 s	CCCNC(=O)N1C[C@@H]2C(=O)N(CCc3ccccc3)C(=O)[C@@H]2C1
645 s	COc1ccc(CC(=O)Nc2c(-c3ccc(F)cc3)nc3ccccn23)cc1
940 s	COc1cccc(NC(=O)C2CCN(S(=O)(=O)c3c(C)nn(-c4ccccc4)c3C)CC2)c1
917 s	CCOC(=O)c1ccccc1NC(=O)NCCn1c(C(F)(F)F)nc2cccnc21
1020 s	O=C1N(c2ccc(F)cc2)c2ncccc2S(=O)(=O)N1Cc1ccccc1
765 s	CC(=O)c1cccc(NC(=O)CCc2c(C)nn(-c3cc(N4CCCC4)ncn3)c2C)c1
653 s	Cc1nc(OCC(=O)NCc2ccc(N(C)C)cc2)c2c(C)c(C)oc2n1
773 s	N#Cc1ccc(C(=O)NCC(=O)N2CCCc3ccccc32)cc1
1180 s	CC(C)c1ccc(-c2ccnc3c(C(=O)NCCCc4ccco4)cnn23)cc1
720 s	CCC1(C(=O)Nc2ccc(OC)c(F)c2)CCCCC(=O)N1 (stereo not given)
787 s	CC(C)Cc1ccc(S(=O)(=O)N2CC(c3nc(-c4ccncc4)nn3C)C2)cc1

RP-LC retention time	SMILES
1080 s	CC1CCN(S(=O)(=O)c2cc(-c3nnc(C4CCCC4)o3)co2)CC1
647 s	COCc1cc(=O)n(CC(=O)Nc2ccc(C)c(C)c2)c(N)n1
694 s	CCNc1cc(N2CCCC(CCC(=O)N3CCc4ccccc4C3)C2)ncn1 (stereo not given)
579 s	Cc1ccccc1Cn1cc(-c2ccncc2)cc1C(=O)NC(C)c1cccnc1 (stereo not given)
784 s	COc1ccccc1C(=O)N1CCCC1COc1ccc(C(=O)N2CCCC2)cc1 (stereo not given)
572 s	CCN1CCN(CCCNC(=O)C2CCCN(c3nnc(-n4cccc4)s3)C2)CC1 (stereo not given)
790 s	O=C1CN(CCc2cccs2)C2CS(=O)(=O)CC2N1c1ccc(Cl)cc1 (stereo not given)
890 s	COc1ccccc1NS(=O)(=O)c1cc2c(s1)CCN(C(=O)C1CCC1)C2
549 s	COCC(C)(O)CNC(=O)c1ccco1 (stereo not given)
679 s	COCCn1cc2c3c(cccc31)CN(C(=O)Nc1cc(Cl)ccc1C)CC2
786 s	Cc1cc(N(CCO)Cc2ccccc2)n2nc(-c3ccccc3C)nc2n1
753 s	CSc1nnc(-c2nn(C)c3c2CN(C(=O)c2ccc(Br)cc2)CC3)n1C
876 s	O=C(Cc1ccc(Br)cc1)NCC(=O)N1CCCc2ccccc21
782 s	O=C(c1cnccn1)N1CCCC1c1nc(-c2ccc(F)cc2F)no1 (stereo not given)
588 s	Cc1cccc(CS(=O)(=O)NCCCN2CCN(c3ccccc3)CC2)c1
687 s	CCOCCCNC(=O)C1CCCN(c2ccc(-c3ccc(C)c(C)c3)nn2)C1 (stereo not given)
823 s	Clc1ccc(Cc2nnc3ccc(Cl)nn23)cc1
557 s	Cc1cccc(NC(=O)N2CCc3[nH]cnc3C2c2ccncc2)c1 (stereo not given)
968 s	CCOc1cccc(C2C(C(=O)OC(C)C)=C(C)NC3=C2C(=O)C(C(=O)OC)C(C)C3)c1 (stereo not given)
1140 s	COc1ccc(CN2C=C(C(=O)OCc3ccccc3C)C(C)=NS2(=O)=O)cc1
1340 s	CCOc1nc2ccccc2nc1N1CCCC(C(=O)Nc2ccc(Br)cc2)C1 (stereo not given)
774 s	Cc1ccccc1S(=O)(=O)N1CCCC(CCC(=O)O)C1 (stereo not given)
1130 s	CCOC(=O)c1nc(N(CC)c2cc(C)ccc2C)c2ccccc2n1

RP-LC retention time	SMILES
1110 s	CCCn1cc(C(=O)NCc2ccccc2C)c(S(=O)(=O)N2CCC(C)CC2)n1
830 s	O=C(COc1ccc(Cl)cc1Cl)N(Cc1ccccn1)Cc1ccco1
766 s	CCCCc1nnc(NC(=O)C2CC(=O)N(CCc3c[nH]c4ccc(OC)cc34)C2)s1 (stereo not given)
717 s	CN(C)c1cccc(C(=O)N2CCC3(CC2)N=C(c2ccccc2)NO3)c1
683 s	COc1cccc(CNC(=O)C2CCN(c3nnc4c(Cl)cccn34)CC2)c1
704 s	CCc1ccc(NS(=O)(=O)c2cc(-c3[nH]ncc3C(=O)N(C)C)oc2C)cc1
915 s	Cc1cc(-c2cc(S(=O)(=O)NCCc3ccc(Cl)cc3)c(C)s2)n[nH]1
784 s	CCCNC(=O)CCC1CCN(S(=O)(=O)c2ccccc2)CC1
623 s	Cn1cc(-c2cc3n(n2)CCC(=O)N3CC(=O)N2CCC(N3CCCCC3)CC2)c2ccccc21
988 s	Cc1oc2ccn(Cc3ccc(F)cc3)c(=O)c2c1C(=O)NCC1CC1
1090 s	CCc1ccc(Oc2cc(N3CCC(C(=O)NCC(C)c4ccccc4)CC3)ncn2)cc1 (stereo not given)
914 s	O=C(Nc1ccc([N+](=O)[O-])cc1O)Nc1ccccc1Br
973 s	COc1ccc(/C=C/c2nn3c(COc4ccc(OC)cc4)nnc3s2)cc1
863 s	Cc1oc(C2CCN(S(=O)(=O)c3ccc(Cl)cc3)CC2)nc1C(=O)N(C)C
908 s	O=C(NC1CCCC1)c1cc(N2CCCC2)n2nccc2n1
613 s	COCCC1(N(C)C)CCN(S(=O)(=O)c2ccc(C#N)cc2)CC1
825 s	CCOc1ccc(N(C)C(=O)C2CCCN2S(=O)(=O)c2cc(C(=O)OC)n(C)c2)cc1 (stereo not given)
628 s	CCOC(=O)N1CCN(c2cc(C(=O)O)c3cc(NC(=O)c4ccccc4F)ccc3n2)CC1
814 s	Cc1ccc(Nc2c(-c3cc(Br)ccc3F)nc3cccc(C)n23)cc1
842 s	C=CCN1C(=O)COc2ccc(-c3csc(NC(=O)C4CC4)n3)cc21
996 s	CCc1ccc(NS(=O)(=O)c2ccc(-c3c(C)noc3C)cc2)cc1

Reference: the METLIN SMRT retention time set (Domingo-Almenara et al. 2019)
